Assay results as given in PubChem BioAssay (NCI).
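Interpolation was linear, between the two tested concentrations surrounding the appropriate level; five concentrations were tested over 48 hours in 96-well plates. TGI denotes the concentration required for complete inhibition of growth.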

Experiments:
Assay in all cases: NCI-60 cell line screen, 48 h
NCI-H226 lung = test system: NCI-H226 lung
SF-539 CNS = test system: SF-539 CNS
RPMI-8226 leukemia = test system: RPMI-8226 leukemia
SF-295 CNS = test system: SF-295 CNS
HOP-62 NSCLC = test system: HOP-62 NSCLC
SN12C renal = test system: SN12C renal
M14 melanoma = test system: M14 melanoma
CCRF-CEM leukemia = test system: CCRF-CEM leukemia
SW-620 colon = test system: SW-620 colon
NCI-H522 lung = test system: NCI-H522 lung
A549 NSCLC = test system: A549 NSCLC
HOP-92 NSCLC = test system: HOP-92 NSCLC
CAKI-1 renal = test system: CAKI-1 renal
DMS 273 small cell lung = test system: DMS 273 small cell lung
UACC-257 melanoma = test system: UACC-257 melanoma
HL-60(TB) leukemia = test system: HL-60(TB) leukemia
OVCAR-4 ovarian = test system: OVCAR-4 ovarian
OVCAR-3 ovarian = test system: OVCAR-3 ovarian
MALME-3M melanoma = test system: MALME-3M melanoma
KM12 colon = test system: KM12 colon
HCT-15 colon = test system: HCT-15 colon
SNB-19 CNS = test system: SNB-19 CNS
SF-268 CNS = test system: SF-268 CNS
DLD-1 colon = test system: DLD-1 colon
SK-MEL-28 melanoma = test system: SK-MEL-28 melanoma
SNB-78 CNS = test system: SNB-78 CNS
UACC-62 melanoma = test system: UACC-62 melanoma
OVCAR-8 ovarian = test system: OVCAR-8 ovarian
U251 CNS = test system: U251 CNS
NCI-H23 lung = test system: NCI-H23 lung
SR leukemia = test system: SR leukemia
KM20L2 colon = test system: KM20L2 colon
A498 renal = test system: A498 renal
RXF 393 renal = test system: RXF 393 renal
HT29 colon = test system: HT29 colon
OVCAR-5 ovarian = test system: OVCAR-5 ovarian
IGROV1 ovarian = test system: IGROV1 ovarian
RXF-631 renal = test system: RXF-631 renal
HCC-2998 colon = test system: HCC-2998 colon
SK-OV-3 ovarian = test system: SK-OV-3 ovarian
EKVX NSCLC = test system: EKVX NSCLC
SK-MEL-5 melanoma = test system: SK-MEL-5 melanoma
TK-10 renal = test system: TK-10 renal
HCT-116 colon = test system: HCT-116 colon
SK-MEL-2 melanoma = test system: SK-MEL-2 melanoma
NCI-H460 lung = test system: NCI-H460 lung
ACHN renal = test system: ACHN renal
MOLT-4 leukemia = test system: MOLT-4 leukemia
UO-31 renal = test system: UO-31 renal
DMS 114 small cell lung = test system: DMS 114 small cell lung
SNB-75 CNS = test system: SNB-75 CNS
786-0 renal = test system: 786-0 renal
LXFL 529 NSCLC = test system: LXFL 529 NSCLC
XF 498 CNS = test system: XF 498 CNS
COLO 205 colon = test system: COLO 205 colon
LOX IMVI melanoma = test system: LOX IMVI melanoma
M19-MEL melanoma = test system: M19-MEL melanoma
HOP-18 NSCLC = test system: HOP-18 NSCLC
K-562 leukemia = test system: K-562 leukemia

Structure (SMILES): O=C1C=Cc2c(-c3ccccc3)oc3cccc1c23
- TGI (NCI-H226 lung): > 70.9 µM
- TGI (SF-539 CNS): > 100 µM
- TGI (RPMI-8226 leukemia): 19 µM
- TGI (SF-295 CNS): > 100 µM
- TGI (HOP-62 NSCLC): > 100 µM
- TGI (SN12C renal): > 100 µM
- TGI (M14 melanoma): > 100 µM
- TGI (CCRF-CEM leukemia): 64.6 µM
- TGI (SW-620 colon): > 100 µM
- TGI (NCI-H522 lung): > 81 µM
- TGI (A549 NSCLC): > 100 µM
- TGI (HOP-92 NSCLC): 73.2 µM
- TGI (CAKI-1 renal): 48.5 µM
- TGI (DMS 273 small cell lung): > 100 µM
- TGI (UACC-257 melanoma): > 100 µM
- TGI (HL-60(TB) leukemia): 27.9 µM
- TGI (OVCAR-4 ovarian): > 100 µM
- TGI (OVCAR-3 ovarian): > 100 µM
- TGI (MALME-3M melanoma): > 100 µM
- TGI (KM12 colon): > 100 µM
- TGI (HCT-15 colon): > 75.4 µM
- TGI (SNB-19 CNS): > 100 µM
- TGI (SF-268 CNS): > 100 µM
- TGI (DLD-1 colon): > 100 µM
- TGI (SK-MEL-28 melanoma): > 100 µM
- TGI (SNB-78 CNS): > 100 µM
- TGI (UACC-62 melanoma): 99.1 µM
- TGI (OVCAR-8 ovarian): > 100 µM
- TGI (U251 CNS): > 100 µM
- TGI (NCI-H23 lung): 62.9 µM
- TGI (SR leukemia): > 54.4 µM
- TGI (KM20L2 colon): > 100 µM
- TGI (A498 renal): > 100 µM
- TGI (RXF 393 renal): > 69 µM
- TGI (HT29 colon): > 100 µM
- TGI (OVCAR-5 ovarian): > 96 µM
- TGI (IGROV1 ovarian): > 100 µM
- TGI (RXF-631 renal): > 100 µM
- TGI (HCC-2998 colon): > 100 µM
- TGI (SK-OV-3 ovarian): > 80.2 µM
- TGI (EKVX NSCLC): 15.5 µM
- TGI (SK-MEL-5 melanoma): > 100 µM
- TGI (TK-10 renal): > 92.2 µM
- TGI (HCT-116 colon): > 73.1 µM
- TGI (SK-MEL-2 melanoma): > 100 µM
- TGI (NCI-H460 lung): > 80.5 µM
- TGI (ACHN renal): > 76.6 µM
- TGI (MOLT-4 leukemia): 19.5 µM
- TGI (UO-31 renal): > 82.6 µM
- TGI (DMS 114 small cell lung): 89 µM
- TGI (SNB-75 CNS): 81.8 µM
- TGI (786-0 renal): > 100 µM
- TGI (LXFL 529 NSCLC): > 100 µM
- TGI (XF 498 CNS): 67.7 µM
- TGI (COLO 205 colon): > 82.1 µM
- TGI (LOX IMVI melanoma): > 52.7 µM
- TGI (M19-MEL melanoma): > 100 µM
- TGI (HOP-18 NSCLC): > 100 µM
- TGI (K-562 leukemia): 48.1 µM

Structure (SMILES): O=S(=O)(N/N=C/c1c(Cl)cccc1Cl)c1ccccc1
- TGI (NCI-H226 lung): > 100 µM
- TGI (SF-539 CNS): > 100 µM
- TGI (RPMI-8226 leukemia): > 100 µM
- TGI (SF-295 CNS): > 100 µM
- TGI (HOP-62 NSCLC): > 100 µM
- TGI (SN12C renal): > 100 µM
- TGI (M14 melanoma): > 100 µM
- TGI (CCRF-CEM leukemia): > 100 µM
- TGI (SW-620 colon): > 100 µM
- TGI (A549 NSCLC): > 100 µM
- TGI (HOP-92 NSCLC): > 100 µM
- TGI (DMS 273 small cell lung): > 100 µM
- TGI (UACC-257 melanoma): > 100 µM
- TGI (HL-60(TB) leukemia): 70.8 µM
- TGI (OVCAR-4 ovarian): > 100 µM
- TGI (OVCAR-3 ovarian): > 100 µM
- TGI (MALME-3M melanoma): > 100 µM
- TGI (KM12 colon): > 100 µM
- TGI (HCT-15 colon): > 100 µM
- TGI (SF-268 CNS): > 100 µM
- TGI (DLD-1 colon): > 100 µM
- TGI (SK-MEL-28 melanoma): > 100 µM
- TGI (SNB-78 CNS): > 100 µM
- TGI (UACC-62 melanoma): > 100 µM
- TGI (OVCAR-8 ovarian): > 100 µM
- TGI (U251 CNS): > 100 µM
- TGI (NCI-H23 lung): > 100 µM
- TGI (SR leukemia): > 100 µM
- TGI (KM20L2 colon): > 100 µM
- TGI (A498 renal): > 100 µM
- TGI (RXF 393 renal): > 100 µM
- TGI (HT29 colon): > 100 µM
- TGI (OVCAR-5 ovarian): > 100 µM
- TGI (IGROV1 ovarian): > 100 µM
- TGI (RXF-631 renal): > 100 µM
- TGI (HCC-2998 colon): > 100 µM
- TGI (SK-OV-3 ovarian): > 100 µM
- TGI (EKVX NSCLC): > 100 µM
- TGI (SK-MEL-5 melanoma): > 100 µM
- TGI (TK-10 renal): > 100 µM
- TGI (HCT-116 colon): > 100 µM
- TGI (SK-MEL-2 melanoma): > 100 µM
- TGI (NCI-H460 lung): > 100 µM
- TGI (MOLT-4 leukemia): > 100 µM
- TGI (UO-31 renal): > 100 µM
- TGI (DMS 114 small cell lung): > 100 µM
- TGI (SNB-75 CNS): > 100 µM
- TGI (LXFL 529 NSCLC): > 100 µM
- TGI (XF 498 CNS): > 100 µM
- TGI (COLO 205 colon): > 100 µM
- TGI (LOX IMVI melanoma): > 100 µM
- TGI (M19-MEL melanoma): > 100 µM
- TGI (HOP-18 NSCLC): > 100 µM
- TGI (K-562 leukemia): > 100 µM

Structure (SMILES): CN(C)c1ccc(Cc2cc(C(C)(C)C)cc(C(C)(C)C)c2O)cc1
- TGI (SF-539 CNS): 43.1 µM
- TGI (RPMI-8226 leukemia): 27.8 µM
- TGI (SF-295 CNS): 35.6 µM
- TGI (HOP-62 NSCLC): 37.2 µM
- TGI (SN12C renal): 30.2 µM
- TGI (M14 melanoma): 41.7 µM
- TGI (CCRF-CEM leukemia): > 100 µM
- TGI (SW-620 colon): 30.6 µM
- TGI (NCI-H522 lung): 37 µM
- TGI (A549 NSCLC): 73.6 µM
- TGI (CAKI-1 renal): 39.6 µM
- TGI (DMS 273 small cell lung): 34 µM
- TGI (UACC-257 melanoma): 34.9 µM
- TGI (HL-60(TB) leukemia): > 100 µM
- TGI (OVCAR-4 ovarian): 82.7 µM
- TGI (MALME-3M melanoma): 53 µM
- TGI (KM12 colon): 24.6 µM
- TGI (HCT-15 colon): 34.3 µM
- TGI (SNB-19 CNS): 47.1 µM
- TGI (SF-268 CNS): 35.6 µM
- TGI (DLD-1 colon): > 100 µM
- TGI (SK-MEL-28 melanoma): 42.6 µM
- TGI (SNB-78 CNS): 37.4 µM
- TGI (UACC-62 melanoma): 30.2 µM
- TGI (OVCAR-8 ovarian): 42 µM
- TGI (U251 CNS): 30.1 µM
- TGI (NCI-H23 lung): 33.3 µM
- TGI (SR leukemia): 33.8 µM
- TGI (KM20L2 colon): 40.4 µM
- TGI (A498 renal): 34 µM
- TGI (RXF 393 renal): 30.8 µM
- TGI (HT29 colon): 31.1 µM
- TGI (OVCAR-5 ovarian): 18.5 µM
- TGI (IGROV1 ovarian): 47.8 µM
- TGI (RXF-631 renal): 36.3 µM
- TGI (HCC-2998 colon): 35.5 µM
- TGI (SK-OV-3 ovarian): 74.5 µM
- TGI (EKVX NSCLC): 46.4 µM
- TGI (SK-MEL-5 melanoma): 29.5 µM
- TGI (TK-10 renal): 27.1 µM
- TGI (HCT-116 colon): 26 µM
- TGI (SK-MEL-2 melanoma): 20.1 µM
- TGI (NCI-H460 lung): 37.5 µM
- TGI (ACHN renal): 33.2 µM
- TGI (MOLT-4 leukemia): 31.5 µM
- TGI (UO-31 renal): 32.7 µM
- TGI (DMS 114 small cell lung): 28.6 µM
- TGI (SNB-75 CNS): 79.6 µM
- TGI (786-0 renal): 33.8 µM
- TGI (LXFL 529 NSCLC): 39.4 µM
- TGI (XF 498 CNS): 36.5 µM
- TGI (LOX IMVI melanoma): 22.3 µM
- TGI (M19-MEL melanoma): 49.4 µM
- TGI (HOP-18 NSCLC): 80.5 µM
- TGI (K-562 leukemia): 26.2 µM
